Patent US12351574B2, “Selective ligands for modulation of GIRK channels” (Northeastern University, priority 2018, dated 2025)

Biological target: T1, GIRK1-S65A with GIRK2 (UniProt P48542+P48549, S65A)
T1 construct: expressed in transfected cells; host or cells: HEK293 cells
T1 sequence (P48549 1-501 S65A): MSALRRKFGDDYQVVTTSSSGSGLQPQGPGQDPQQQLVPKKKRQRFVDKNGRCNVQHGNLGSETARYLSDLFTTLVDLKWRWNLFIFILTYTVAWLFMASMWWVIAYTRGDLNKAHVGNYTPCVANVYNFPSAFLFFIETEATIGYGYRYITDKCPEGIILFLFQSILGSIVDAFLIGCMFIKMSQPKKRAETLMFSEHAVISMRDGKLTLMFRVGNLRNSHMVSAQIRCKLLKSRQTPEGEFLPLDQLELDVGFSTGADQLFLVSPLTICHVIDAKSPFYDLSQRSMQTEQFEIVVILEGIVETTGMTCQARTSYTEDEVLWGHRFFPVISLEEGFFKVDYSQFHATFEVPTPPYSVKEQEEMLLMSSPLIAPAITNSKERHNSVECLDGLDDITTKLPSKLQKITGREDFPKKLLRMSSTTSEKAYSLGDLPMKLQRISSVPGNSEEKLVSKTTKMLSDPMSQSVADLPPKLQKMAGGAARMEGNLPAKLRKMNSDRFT
T1 sequence (P48542 1-425): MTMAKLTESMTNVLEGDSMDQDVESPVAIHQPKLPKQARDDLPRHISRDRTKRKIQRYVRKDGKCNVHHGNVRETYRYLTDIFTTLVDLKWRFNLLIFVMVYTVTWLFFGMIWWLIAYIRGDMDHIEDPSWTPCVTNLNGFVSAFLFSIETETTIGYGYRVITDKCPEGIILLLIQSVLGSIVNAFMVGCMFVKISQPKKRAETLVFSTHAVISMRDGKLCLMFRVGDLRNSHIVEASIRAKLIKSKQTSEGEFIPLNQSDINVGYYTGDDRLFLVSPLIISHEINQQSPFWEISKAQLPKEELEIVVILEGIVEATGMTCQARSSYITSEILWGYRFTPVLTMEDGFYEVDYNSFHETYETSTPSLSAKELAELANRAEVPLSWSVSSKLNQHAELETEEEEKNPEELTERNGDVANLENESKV
Experiment: 5-ptaseOCRL current inhibition, GIRK1/2 channels containing GIRK1-S65A subunits
Type: cell-based, human GIRK1, mouse GIRK2
Conditions: 10 μM GAT1508
Text: To identify changes in specific channel residue interactions with PIP2 upon ligand binding, the inventors carried out Principal Component Analysis (PCA) in the presence and absence of ML297 and GAT1508. The PCA analysis implicated changes in the slide (or interfacial) helix interactions with PIP2 upon ligand binding. Polar interactions could be formed between GIRK2^FD(Y76) and GIRK4^FD(Y71) with the P(4,5) of PIP2 when ML297 was bound to the same subunit (FIG. 39 top, FIG. 40). In contrast, when GAT1508 was bound this interaction was retained by GIRK2^FD but not GIRK4^FD (FIG. 39 bottom, FIG. 40). The corresponding GIRK1(S65) residue (FIG. 41, highlighted with vertical rectangle) could be serving the same role in stabilizing the phosphoinositol headgroup for interactions with non-ligand binding subunits. As polar residues, both Ser and Tyr could form H-bond interactions with PIP2. […]
Patch-clamp recording: Whole-cell currents were recorded with an Axopatch 200B amplifier (Molecular Devices) controlled via a USB-interface (National Instruments) using WinWCP software (University of Strathclyde). […] The barium-sensitive component of the current, observed when cells were perfused with the high-K^+ buffer, was analyzed and was determined by perfusing 5 mM BaCl2 in the high-K^+ buffer at the end of each experiment. […]

- protection of current from 5-ptaseOCRL (in words): not protected
SMILES: Cc1cc(NC(=O)Nc2ccc(Br)s2)n(-c2ccccc2)n1 [GAT1508, 1-(5-bromothiophen-2-yl)-3-(3-methyl-1-phenyl-1H-pyrazol-5-yl)urea]
